Experimental data as given in PubChem BioAssay (NCI).
Values joined by “and” are separate entries in the source; they are usually repeats but may differ in a detail not shown here. Equal values may be shown once.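 Each compound was tested at five concentrations against cells in 96-well plates for 48 hours. GI50 marks 50% less growth. TGI denotes the concentration required for complete inhibition of growth.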

How the values were obtained:
Assay in all cases: inhibition of tumour cell growth, NCI panel, 48 h
CCRF-CEM leukemia = tested on: CCRF-CEM leukemia
OVCAR-4 ovarian = tested on: OVCAR-4 ovarian
SNB-75 CNS = tested on: SNB-75 CNS
LOX IMVI melanoma = tested on: LOX IMVI melanoma
SF-539 CNS = tested on: SF-539 CNS
SN12C renal = tested on: SN12C renal
HOP-92 NSCLC = tested on: HOP-92 NSCLC
A549 NSCLC = tested on: A549 NSCLC
MCF7 breast = tested on: MCF7 breast
MDA-N = tested on: MDA-N
SR leukemia = tested on: SR leukemia

Row | SMILES | TGI (CCRF-CEM leukemia) [µM] | TGI (OVCAR-4 ovarian) | TGI (SNB-75 CNS) | TGI (LOX IMVI melanoma) | TGI (SF-539 CNS) | TGI (SN12C renal) | TGI (HOP-92 NSCLC) | TGI (A549 NSCLC) | TGI (MCF7 breast) | TGI (MDA-N) | TGI (SR leukemia) [µM] | GI50 (MCF7 breast) [µM] | GI50 (CCRF-CEM leukemia) [µM] | GI50 (MDA-N) [µM] | GI50 (LOX IMVI melanoma) | GI50 (SF-539 CNS)
1 | COc1cc(CCc2cccnc2)cc(OC)c1OC | > 100 | > 100 µM | > 100 µM | > 100 µM | > 100 µM | > 100 µM | > 100 µM | > 100 µM |  |  |  |  |  |  |  | 
2 | Nc1nc(N)c2ncn(CC3CCC(CO)C3)c2n1 (stereo not drawn) | > 100 | > 100 µM | > 100 µM | > 100 µM | > 100 µM | > 100 µM | > 100 µM | > 100 µM | > 100 µM | > 100 µM |  |  |  |  |  | 
3 | CN(C)CC(/C(Cc1ccccc1)=N\NC(=O)C[n+]1ccccc1)c1ccccc1 (stereo not drawn) | > 100 | > 100 µM | > 100 µM |  | > 100 µM | > 100 µM | > 100 µM | > 100 µM |  |  | > 100 |  |  |  |  | 
4 | [O-]/[N+](=C\c1ccccc1)[C@H](COCc1ccccc1)c1ccccc1 | > 100 |  | > 100 µM | > 100 µM | > 100 µM |  | 92.7 µM | > 100 µM |  |  |  |  |  |  |  | 
5 | Cc1ccc(S(=O)(=O)c2scc(-c3ccccc3)c2C)cc1 |  | > 100 µM | > 100 µM | > 100 µM | > 100 µM | > 100 µM | > 100 µM | > 100 µM | > 100 µM | > 100 µM |  |  |  |  |  | 
6 | COc1cc(/C=C2/SC(c3ccccc3)N(c3ccc(NC(C)=O)cc3)C2=O)cc(OC)c1OC (stereo not drawn) |  | > 100 µM |  | > 100 µM | > 100 µM | > 100 µM | > 100 µM | > 100 µM | > 100 µM | > 100 µM | > 100 |  |  |  |  | 
7 | C=C1C(=O)OC2/C=C(\C)C(OC(C)=O)C3OC3C(C)(O)CC(OC(=O)/C(C)=C/C)C12 (stereo not drawn) | 9.45 | 62.2 µM | 97.4 µM | 30.4 µM | 14.2 µM | 47.4 µM | 23.5 µM | 42.6 µM |  |  | 23.2 |  |  |  |  | 
8 | COc1cc(/C=C/C(=O)OCC23CC[C@@]4(C(=O)O)CCC(C)[C@H](C)C4C2=CCC2[C@@]4(C)CC[C@H](O)C(C)(C)C4CC[C@]23C)ccc1O (stereo partly drawn) | 22.3 | 46.9 µM |  | 34.2 µM | 31.4 µM | 67.8 µM |  | 22.6 µM | 48.1 µM | 60.7 µM | 61.3 |  |  |  |  | 
9 | O=S(=O)(c1ccc(Br)cc1)n1c2ccc(Br)cc2c2nc3ccccc3nc21 | > 100 | > 100 µM | 82.6 µM | > 100 µM |  | > 100 µM | > 100 µM | > 100 µM |  | > 100 µM |  |  |  |  |  | 
10 | CN(C)CCNc1ccc(C(=O)NCCCN(C)CCCNC(=O)c2ccc(NCCN(C)C)c3c(=O)c4ccccc4[nH]c23)c2[nH]c3ccccc3c(=O)c12 | 1.02 | 0.211 µM |  | 0.286 µM | < 0.0309 µM | 1.02 µM | 0.616 µM | 0.318 µM | 0.489 µM | 0.583 µM |  |  |  |  |  | 
11 | COc1ccc(-c2nc(N)c(C#N)c3c2CCS(=O)(=O)c2ccc(C)cc2-3)cc1OC |  | > 100 µM | 69.7 µM | > 100 µM |  | > 100 µM | > 100 µM | > 100 µM |  | 51 µM |  |  |  |  |  | 
12 | O=C(COc1ccc(OCC(=O)N2C(=O)CC(=O)N(c3ccccc3)C2=S)cc1)N1C(=O)CC(=O)N(c2ccccc2)C1=S |  | > 100 µM | > 100 µM |  |  | > 100 µM | > 100 µM | > 100 µM | > 100 µM | > 100 µM |  |  |  |  |  | 
13 | c1ccc(CNC2CC(NCc3ccccn3)CC(NCc3ccccn3)C2)nc1 (stereo not drawn) |  | 9.26 µM and 8.37 µM and 40.9 µM | 9.59 µM and 16 µM | 6.95 µM and 14.5 µM and 7.77 µM | 10.1 µM and 10.7 µM and 15.7 µM | 20.8 µM and 13.6 µM and 17.7 µM | 9.06 µM and 8.87 µM and 15.2 µM | 6.47 µM and 6.12 µM | 6.31 µM and 8.62 µM and 3.65 µM | 12.5 µM and 11.3 µM and 4.78 µM |  | 1.89 | 4.64 | 2.22 | 2.62 µM and 5.4 µM and 2.83 µM | 1.98 µM and 4.74 µM and 3.22 µM
14 | COc1cccc2c1OC1c3ccccc3OCC1C2 (stereo not drawn) | > 100 |  | 20.6 µM | > 100 µM | > 100 µM | > 100 µM |  | > 100 µM | > 100 µM | > 100 µM | > 100 |  |  |  |  | 
15 | Cc1[nH]c2ncn(/N=C/c3ccccc3O)c(=N)c2c1Cc1ccccc1 | > 100 | > 100 µM | > 100 µM | > 100 µM | > 100 µM | > 100 µM | > 100 µM | > 100 µM | > 100 µM | 93.8 µM |  |  |  |  |  | 
16 | CC12CC3C(CC1SCC(=O)O2)C3(C)C (stereo not drawn) | > 100 | > 100 µM | > 100 µM |  | > 100 µM | > 100 µM | > 100 µM | > 100 µM |  |  |  |  |  |  |  | 
17 | CCCCNC1CCC2(SCCS2)c2[nH]c3ccccc3c21 (stereo not drawn) | > 59.7 | > 100 µM | > 100 µM | 14.4 µM | 31.6 µM | > 100 µM | > 81.9 µM | > 100 µM | 13.2 µM |  | 39.6 |  |  |  |  | 
18 | O=C(Nc1c(O)[nH]c(=S)[nH]c1=O)c1ccccn1 | > 100 | > 100 µM | > 100 µM | > 100 µM | > 100 µM | > 100 µM | > 100 µM | > 100 µM |  |  | > 100 |  |  |  |  | 
19 | CCOC(=O)c1cnc(-n2[nH]c(C)c(CCO)c2=O)[nH]c1=O | > 100 | > 100 µM | > 100 µM | > 100 µM | > 100 µM | > 100 µM | > 100 µM | > 100 µM | > 100 µM | > 100 µM |  |  |  |  |  | 
20 | CC1(C)O[C@H]2Cn3c(c(C#N)c4ccccc43)[C@H]2O1 |  | > 100 µM | > 100 µM |  | > 100 µM | > 100 µM | > 100 µM | > 100 µM | > 100 µM | > 100 µM | > 100 |  |  |  |  | 
21 | O=C1c2ccccc2C2(O)Nc3cc(O)ccc3C12O (stereo not drawn) | > 100 | > 100 µM | > 100 µM | > 100 µM | > 100 µM | > 100 µM | > 100 µM | > 100 µM |  |  |  |  |  |  |  | 
22 | C/C=C/[C@@]1(OC(=O)c2ccccc2)C[C@@H]2CCCC[C@@H]21 | 45.4 | 32.2 µM | 27.3 µM | 44.7 µM | 33.1 µM | 36.7 µM |  | 36.7 µM | 33.3 µM | 33.4 µM | 37.9 |  |  |  |  | 
23 | S=c1sc2c(Cl)ncnc2n1-c1ccccc1 |  | 33.6 µM | 27.4 µM | 16.6 µM | 29.9 µM | 29.4 µM | 34.3 µM | 67.8 µM |  |  | 9.36 |  |  |  |  | 
